Results as given in patent US6759390B2, “Compounds and their uses” (priority 2000, dated 2004).

Tests used:
[1] = system: PDH phosphatase; experiment: PDH phosphatase activation; format: biochemical; settings: 100 μM
Text: (§1) Methods for obtaining A-type and P-type mediators are set out in Caro et al, 1997, and in WO98/11116 and WO98/11117. Protocols for determining characteristic IPG biological activities such as PDH activation, PKA inhibition, acetylCoA activation, fructose-1,6-bis-phosphatase activity and lipogenesis are well known in the art, e.g. as described in Caro et al^[14].
(§2) The compounds of the invention can be tested for one or more the characteristic IPG-P and/or IPG-A activities mentioned above to determine whether they will be suitable for use a IPG mimetics or antagonists. Preferred assays measure the effect of the compounds on PDH phosphatase, PKA or lipogenesis. Protocols for these assays are provided in Caro et al^[14].

[2] = system: lipogenesis; experiment: basal lipogenesis stimulation; format: cell-based; settings: FIG. 2
Text: as §1, §2

[3] = system: lipogenesis; experiment: glucose stimulated lipogenesis stimulation; format: cell-based; settings: FIG. 3
Text: as §1, §2

[4] = system: PKA; experiment: PKA inhibition; format: biochemical
Text: as §1, §2

| PDH activation [1] [%] | SMILES | effect on basal lipogenesis [2] | effect on glucose stimulated lipogenesis [3] | PKA inhibition ([4]; 0.1 μM) [%] | PKA inhibition ([4]; 10 μM) [%] |
| --- | --- | --- | --- | --- | --- |
| 14 | N[C@H]1[C@@H](O[C@H]2[C@H](O)[C@H](O)[C@H](O)[C@@H](O)[C@@H]2O)O[C@H](COP(=O)(O)O)[C@@H](O)[C@@H]1O [RGL1023, O-(2′-amino-2′-deoxy-6′-phosphate-D-glucopyranosyl)-α(1,6)-D-myo-inositol] | stimulate lipogenesis | stimulate lipogenesis |  |  |
| 132 | NC1C(OC2C(O)C(O)C(O)C(O)C2O)OC(CO)C(OP(=O)(O)O)C1O [RGL1027, O-(2′-amino-2′-deoxy-4′-phosphate-D-glucopyranosyl)-α(1,6)-D-myo-inositol] | inhibits lipogenesis | inhibits lipogenesis | 18 | 10 |
| 361 | NC1C(OC2C(O)C(O)C(O)C(O)C2O)OC(CO)C(O)C1OP(=O)(O)O [RGL1029, O-(2′-amino-2′-deoxy-3′-phosphate-D-glucopyranosyl)-α(1,6)-D-myo-inositol] | stimulate lipogenesis | stimulate lipogenesis | 59 | 33 |
| 18 | NC1C(OC2C(O)C(O)C(O)C(O)C2OP(=O)(O)O)OC(CO)C(O)C1O [RGL1115, 1′-D-6-O-(2′-amino-2′-deoxy-α-D-glucanopyranosyl)-5-O-phosphate-myo-inositol] |  |  |  |  |
